Assay results from US9433663B2, “Mobilization of hematopoietic stem cells” (Children's Hospital Medical Center, priority 2008, dated 2016).

Legend:
Rac1 [1] = target: T1, Rac1 (Homo sapiens, UniProt P63000); assay: Rho GTPase effector pulldown in human CD34+ umbilical cord blood cells, Rac1; type: cell-based; details: human CD34^+ HCBs
T1 construct: endogenous in cells; host or cells: human CD34+ umbilical cord blood cells (HCB)
Method: (§1) To begin to study potential utility of CASIN in human hematopoietic stem cell mobilization, a series of cellular assays were carried out to determine the effects on human CD34^+ umbilical cord blood cells (HCBs). […] The effects of CASIN on human hematopoietic cell mobilization was therefore tested using a well established preclinical in vivo model (NOD/SCID-Hcb) of human hematopoietic function, where fresh CD34^+ hCB cells were transplanted into sub-lethally irradiated NOD/SCIDs by intrafemoral injection, and repopulated and maintained human hematopoietic reconstitution in the bone marrow of NOD/SCID recipient mice (FIG. 9b, FIG. 11) (Larochelle, A. et al. Nat Med 2, 1329-1337 (1996); Bhatia, M., et al. Proc Natl Acad Sci USA 94, 5320-5325 (1997)). Intravenous injections of CASIN were applied when human cells were well engrafted in the NOD/SCID recipients.
To analyze the effects of CASIN on the formation of active GTP-bound Cdc42, RhoA, and Rac1, effector pulldown assays were carried out as described previously. Cdc42GAP^−/− MEF, LDBM, CD34^+ hCB cells were treated with CASIN at doses of 5-20 μM in parallel with vehicle control for 2 hrs after overnight starvation, and stimulated with cytokines subsequently. […]

N-RasMA93 cells = assay: directional migration of N-RasMA93 leukemia cells towards SDF-1α (transwell); type: cell-based, human; details: in vitro
Method: FIG. 5B. Migration of leukemia cells towards SDF-1α without or with CASIN pre-treatment at doses of 5 and 10 μM was determined by transwell assays.
Like normal HSCs, their malignant counterpart, leukemia initiating cells (LICs) reside in their BM niches that provide the structural and physiological conditions supporting their survival and growth. LICs are resistant to traditional chemotherapy by interacting with their BM microenvironment, which are the culprits of leukemia relapses after a period of remission induced by chemotherapy. Detachment of LICs from their niche by CASIN would be a valuable supplementary therapy to the traditional cancer therapies (e.g., chemotherapies). First of all, in vitro effects of CASIN were examined in adhesion, migration, and F-actin polymerization of LICs, each of which is independently important for the retention of LICs in BM niches. Retroviral transduction of an MLL-AF9 fusion cDNA together with N-Ras oncogene into normal human CD34^+cord blood cells led to the establishment of cultures of N-Ras-MA93 cells that can initiate acute myeloid leukemia in NOG mice. […] To address it, a human AML model was set up by transplanting N-RasMA93 cells into NOG mice intravenously.

Rac1 [2] = target: T2, Rac1 (Mus musculus, UniProt P63001); assay: Rho GTPase effector pull-down in murine LDBM cells, Rac1; type: cell-based; details: parallel pull-down assay
T2 construct: endogenous in cells; host or cells: murine LDBM cells
Method: To analyze the effects of CASIN on the formation of active GTP-bound Cdc42, RhoA, and Rac1, effector pulldown assays were carried out as described previously. Cdc42GAP^−/− MEF, LDBM, CD34^+ hCB cells were treated with CASIN at doses of 5-20 μM in parallel with vehicle control for 2 hrs after overnight starvation, and stimulated with cytokines subsequently. And then cells were lysed in a buffer containing 20 mM Tris-HCL (pH 7.6), 100 mM NaCl, 1% Triton X-100, 10 mM MgCl2, 2 mM NaF, and Protease inhibitor cocktail (Roche Diagnostics). Lysates were incubated with GST-P21-binding domain of PAK1 for RAC1-GTP and Cdc42-GTP, and GST-RBD domain of Rhotekin for RhoA-GTP respectively. Both bound- and unbound-form of Rho GTPases were probed by immunoblotting with antibodies specific for Rac1 (BD biosciences), Cdc42 (BD biosciences), and RhoA (cell signaling).

leukemia cells = assay: apoptosis of leukemia cells by FACS analysis; type: cell-based, human; details: after 24 hrs' CASIN pre-treatment, FIG. 5D
murine HSCs = assay: Example 7 competitive repopulating assay of mobilized HSCs; type: in vivo, mice; details: competitive repopulating experiments, CASIN-mobilized C57Bl/6 donors
From the text: Although mobilization of HPC may be of use for short-term repopulation in a transplant setting, HSCs are required for long-term repopulation. To assess mobilization effect of CASIN on murine HSCs, a competitive repopulating assay is used. Basically, donor cells are harvested from peripheral blood of C57Bl/6 mice (CD45.2) after mobilization with CASIN or control medium. BM cells from nonirradiated B6.BoyJ (CD45.1) mice are served as competitor cells. Dilutions of donor blood cells from mobilized C57Bl/6 mice that contain long-term repopulating (LTR) cells compete with marrow cells of recipient B6.BoyJ mice at ratio of 3:1, 2:1, and 1:1 for engraftment in lethally-irradiated recipients. Donor chimerism is assessed using CD45 congenic markers by flow cytometry at 1, 2, 3, and 4 months posttransplantation. […] Donor chimerism again is assessed in the secondary mice based on the CD45 congenic markers.
The mobilization effect of CASIN on HSCs in comparison or combination with G-CSF is assessed under the following four mobilization groups: (1) Control medium mobilization group; (2) CASIN mobilization group; (3) G-CSF mobilization group (G-CSF: twice a day for 2 days); (4) CASIN plus G-CSF (twice a day for 2 days) mobilization group. […] The mobilization effects under different groups are analyzed based on the chimerism of donor-derived cells.

LDBM cells = assay: proliferation (CFU) and toxicity in Cdc42+/+ and Cdc42−/− LDBM progenitors; type: cell-based, murine
From the text: (§2) To shed light on potential roles of CASIN in HSPC mobilization, the effects of CASIN on Cdc42-related cellular functions was studied, including adhesion, migration, and F-actin polymerization of progenitor cells in 32D myeloid progenitors. […] SDF-1α stimulation causes a reorganization of F-actin into a cortical ring around the cells. […] Thirdly, to gain further insight into cellular specificity and efficacy of CASIN, and also to rule out possible toxic effects by CASIN, Cdc42-involved BM progenitor cell functions were examined, including proliferation, adhesion, migration, and F-actin polymerization, in Cdc42^+/+ cells in parallel with Cdc42^−/− cells. In line with additional studies in a Cdc42 conditional knockout mouse model as described herein, Cdc42^−/− LDBM cells have increased CFU-forming progenitors compared to those of Cdc42^+/+.

[3] = test system: human CD34^+ umbilical cord blood cells; assay: adhesion of human CD34+ HCB cells; type: cell-based; details: 5 μM
Method: FIG. 4B. Relative adhesion of CD34^+ HCB cells in the presence of CASIN at dose of 5 μM in comparison to that of control.
as §1

32D myeloid progenitors [4] = assay: transwell migration of 32D progenitors towards SDF1α; type: cell-based, murine; details: dose-dependent manner
From the text: as §2

32D myeloid progenitors [5] = assay: adhesion of 32D progenitors to fibronectin fragment CH296; type: cell-based, murine; details: gradient CASIN treatments
From the text: as §2

OCCNC1CCCc2c1[nH]c1ccc(-c3ccccc3)cc21 (stereo not drawn) [CASIN]
Rac1 activity (Rac1 [1]): without affecting | directional migration capacity of N-RasMA93 cells (N-RasMA93 cells): significantly impaired | Rac1 activity (Rac1 [2]): no effects | apoptosis of leukemia cells (leukemia cells): precipitated leukemia cells to apoptosis | engraftment of donor derived cells in recipient B6.BoyJ mice (murine HSCs): significant engraftment of donor derived cells in a dilution-dependent pattern | proliferation of WT progenitors (LDBM cells; Cdc42^+/+ LDBM cells, FIG. 2d): did not affect | side effect on the KO cells (LDBM cells; Cdc42^−/− LDBM cells, FIG. 2d): nor showed any side effect | myeloproliferative disorders (MPDs) or hyperactivation (LDBM cells; as compared with the Cdc42 conditional knockout mouse): did not cause | toxic effect in WT or Cdc42 deficient HSPCs (LDBM cells; dose range of 5-10 μM): without a detectable toxic effect | adhesion activity of human progenitors [3]: significantly dampened | migration of 32D progenitor cells towards SDF1α gradient (32D myeloid progenitors [4]): significantly reduced migration | percentages of adherent 32D cells to CH296 (32D myeloid progenitors [5]): significantly reduced dose-dependently
